# Target: T1, MAGL (Homo sapiens, UniProt Q99685)
# T1 sequence (Q99685 1-303): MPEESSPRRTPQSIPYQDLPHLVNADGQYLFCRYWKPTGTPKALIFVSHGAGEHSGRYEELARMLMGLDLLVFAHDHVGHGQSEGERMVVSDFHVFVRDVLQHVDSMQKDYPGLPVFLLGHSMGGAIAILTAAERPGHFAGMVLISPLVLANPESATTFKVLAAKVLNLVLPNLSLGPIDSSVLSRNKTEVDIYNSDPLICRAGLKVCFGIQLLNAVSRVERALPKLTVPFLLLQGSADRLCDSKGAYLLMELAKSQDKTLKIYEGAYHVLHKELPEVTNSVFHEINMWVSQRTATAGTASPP
# Assay: 2-AG assay (MAGL inhibitory activity; hydrolysis of 2-arachidonoylglycerol to arachidonic acid followed by mass spectrometry)
# Format: biochemical
# Details: 15 min preincubation at RT, 8 μM 2-arachidonoylglycerol, 30 min at RT, RapidFire MS readout
# How it was run: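 Compounds (final 12.5 μM to […], 3-fold steps) preincubated 15 min at RT with MAGL ([…]) in 50 mM TRIS, 1 mM EDTA, Tween buffer. Reaction started with 8 μM 2-arachidonoylglycerol, run 30 min at RT, quenched with ACN containing d8-arachidonic acid. Arachidonic acid quantified by RapidFire SPE-triple quadrupole MS (negative ESI), activity from arachidonic acid/d8 ratio.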
row,Compound,IC50 [µM]
1,"COc1cccc(C(=O)N2CCN3C[C@@](O)(c4ccc(Cl)c(F)c4)OC[C@@H]3C2)c1Cl [Example 120, [(3R,9aS)-3-(4-chloro-3-fluoro-phenyl)-3-hydroxy-1,4,6,7,9,9a-hexahydropyrazino[2,1-c][1,4]oxazin-8-yl]-(2-chloro-3-methoxy-phenyl)methanone]",0.0424
2,"O=C(c1cccc(-c2c[nH]c(=O)o2)c1Cl)N1CCN2C[C@@H](c3ccc(F)c(Cl)c3)OC[C@@H]2C1 [Example 121, 5-[3-[(3R,9aS)-3-(3-chloro-4-fluoro-phenyl)-3,4,6,7,9,9a-hexahydro-1H-pyrazino[2,1-c][1,4]oxazine-8-carbonyl]-2-chloro-phenyl]-3H-oxazol-2-one]",0.0464
3,"O=C(c1cccc(-c2c[nH]c(=O)o2)c1Cl)N1CCN2C[C@@](O)(c3ccc(Cl)c(Cl)c3)OC[C@@H]2C1 [Example 122, 5-[3-[(3R,9aS)-3-(3,4-dichlorophenyl)-3-hydroxy-1,4,6,7,9,9a-hexahydropyrazino[2,1-c][1,4]oxazine-8-carbonyl]-2-chloro-phenyl]-3H-oxazol-2-one]",0.0486
4,"Cc1cc(-c2cccc(C(=O)N3CCN4C[C@@H](c5ccc(F)c(Cl)c5)OC[C@@H]4C3)c2Cl)cc(=O)[nH]1 [Example 123, 4-[3-[(3R,9aS)-3-(3-chloro-4-fluoro-phenyl)-3,4,6,7,9,9a-hexahydro-1H-pyrazino[2,1-c][1,4]oxazine-8-carbonyl]-2-chloro-phenyl]-6-methyl-1H-pyridin-2-one]",0.0557
5,"Cc1[nH]c(=O)ccc1-c1cccc(C(=O)N2CCN3C[C@@H](c4ccc(F)c(Cl)c4)OC[C@@H]3C2)c1Cl [Example 124, 5-[3-[(3R,9aS)-3-(3-chloro-4-fluoro-phenyl)-3,4,6,7,9,9a-hexahydro-1H-pyrazino[2,1-c][1,4]oxazine-8-carbonyl]-2-chloro-phenyl]-6-methyl-1H-pyridin-2-one]",0.0576
6,"COc1cccc(C(=O)N2CCN3C[C@@](O)(c4cc(Cl)cc(Br)c4)OC[C@@H]3C2)c1Cl [Example 125, [(3R,9aS)-3-(3-bromo-5-chloro-phenyl)-3-hydroxy-1,4,6,7,9,9a-hexahydropyrazino[2,1-c][1,4]oxazin-8-yl]-(2-chloro-3-methoxy-phenyl)methanone]",0.0828
7,"O=C1CN(c2cccc(C(=O)N3CCN4C[C@@H](c5ccc(F)c(Cl)c5)OC[C@@H]4C3)c2Cl)CCN1 [Example 126, 4-[3-[(3R,9aS)-3-(3-chloro-4-fluoro-phenyl)-3,4,6,7,9,9a-hexahydro-1H-pyrazino[2,1-c][1,4]oxazine-8-carbonyl]-2-chloro-phenyl]piperazin-2-one]",0.0962
8,"O=C(c1cccc(-c2cnsc2)c1Cl)N1CCN2C[C@@](O)(c3ccc(F)c(Cl)c3)OC[C@@H]2C1 [Example 127, [(3R,9aS)-3-(3-chloro-4-fluoro-phenyl)-3-hydroxy-1,4,6,7,9,9a-hexahydropyrazino[2,1-c][1,4]oxazin-8-yl]-(2-chloro-3-isothiazol-4-yl-phenyl)methanone]",0.0977
9,"COc1cccc(C(=O)N2CCN3C[C@@H](c4cc(F)c(F)cc4F)OC[C@@H]3C2)c1Cl [Example 128, [(3R,9aS)-3-(2,4,5-trifluorophenyl)-3,4,6,7,9,9a-hexahydro-1H-pyrazino[2,1-c][1,4]oxazin-8-yl]-(2-chloro-3-methoxy-phenyl)methanone]",0.103
10,"COc1cccc(C(=O)N2CCN3C[C@@](O)(c4ccc(Cl)cc4Cl)OC[C@@H]3C2)c1Cl [Example 129, [(3R,9aS)-3-(2,4-dichlorophenyl)-3-hydroxy-1,4,6,7,9,9a-hexahydropyrazino[2,1-c][1,4]oxazin-8-yl]-(2-chloro-3-methoxy-phenyl)methanone]",0.113
11,"COc1cccc(C(=O)N2CCN3C[C@@](O)(c4ccc(F)c(F)c4F)OC[C@@H]3C2)c1Cl [Example 130, [(3R,9aS)-3-hydroxy-3-(2,3,4-trifluorophenyl)-1,4,6,7,9,9a-hexahydropyrazino[2,1-c][1,4]oxazin-8-yl]-(2-chloro-3-methoxy-phenyl)methanone]",0.117
12,"COc1cccc(C(=O)N2CCN3C[C@@](O)(c4cc(Br)c(OC)s4)OC[C@@H]3C2)c1Cl [Example 131, [(3S,9aS)-3-(4-bromo-5-methoxy-2-thienyl)-3-hydroxy-1,4,6,7,9,9a-hexahydropyrazino[2,1-c][1,4]oxazin-8-yl]-(2-chloro-3-methoxy-phenyl)methanone]",0.118
13,"N#Cc1cc(-c2cc(F)cc(C(=O)N3CCN4C[C@@H](c5c[nH]c(C(F)(F)F)cc5=O)OC[C@@H]4C3)c2Cl)c[nH]1 [Example 132, 4-[3-[(3R,9aS)-3-[4-oxo-6-(trifluoromethyl)-1H-pyridin-3-yl]-3,4,6,7,9,9a-hexahydro-1H-pyrazino[2,1-c][1,4]oxazine-8-carbonyl]-2-chloro-5-fluoro-phenyl]-1H-pyrrole-2-carbonitrile]",0.131
14,"O=C(c1cc(F)cc(-c2c[nH]nc2F)c1Cl)N1CCN2C[C@@H](c3cc(Cl)c[nH]c3=O)OC[C@@H]2C1 [Example 133, 3-[(3R,9aS)-8-[2-chloro-5-fluoro-3-(3-fluoro-1H-pyrazol-4-yl)benzoyl]-3,4,6,7,9,9a-hexahydro-1H-pyrazino[2,1-c][1,4]oxazin-3-yl]-5-chloro-1H-pyridin-2-one]",0.142
15,"O=C(c1cccc(-c2n[nH]c(=O)o2)c1Cl)N1CCN2C[C@@H](c3ccc(F)c(Cl)c3)OC[C@@H]2C1 [Example 134, 5-[3-[(3R,9aS)-3-(3-chloro-4-fluoro-phenyl)-3,4,6,7,9,9a-hexahydro-1H-pyrazino[2,1-c][1,4]oxazine-8-carbonyl]-2-chloro-phenyl]-3H-1,3,4-oxadiazol-2-one]",0.144
16,"COc1cccc(C(=O)N2CCN3C[C@@H](c4cc(Cl)c(F)c(C#N)c4)OC[C@@H]3C2)c1Cl [Example 135, 5-[(3R,9aS)-8-(2-chloro-3-methoxy-benzoyl)-3,4,6,7,9,9a-hexahydro-1H-pyrazino[2,1-c][1,4]oxazin-3-yl]-3-chloro-2-fluoro-benzonitrile]",0.145
17,"COc1cccc(C(=O)N2CCN3C[C@@](O)(c4ccc(C(F)(F)F)[nH]c4=O)OC[C@@H]3C2)c1Cl [Example 136, 3-[(3R,9aS)-8-(2-chloro-3-methoxy-benzoyl)-3-hydroxy-1,4,6,7,9,9a-hexahydropyrazino[2,1-c][1,4]oxazin-3-yl]-6-(trifluoromethyl)-1H-pyridin-2-one]",0.152
18,"COc1cccc(C(=O)N2CCN3C[C@@H](c4ccc(-c5cnco5)c(Cl)c4)OC[C@@H]3C2)c1Cl [Example 137, [(3R,9aS)-3-(3-chloro-4-oxazol-5-yl-phenyl)-3,4,6,7,9,9a-hexahydro-1H-pyrazino[2,1-c][1,4]oxazin-8-yl]-(2-chloro-3-methoxy-phenyl)methanone]",0.182
19,"N#Cc1cc(-c2cccc(C(=O)N3CCN4C[C@@H](c5ccc(F)c(Cl)c5)OC[C@@H]4C3)c2Cl)n[nH]1 [Example 138, 3-[3-[(3R,9aS)-3-(3-chloro-4-fluoro-phenyl)-3,4,6,7,9,9a-hexahydro-1H-pyrazino[2,1-c][1,4]oxazine-8-carbonyl]-2-chloro-phenyl]-1H-pyrazole-5-carbonitrile]",0.19
20,"COc1cccc(C(=O)N2CCN3C[C@@](O)(c4csc(-c5ccc(F)cc5)n4)OC[C@@H]3C2)c1Cl [Example 139, [(3S,9aS)-3-[2-(4-fluorophenyl)thiazol-4-yl]-3-hydroxy-1,4,6,7,9,9a-hexahydropyrazino[2,1-c][1,4]oxazin-8-yl]-(2-chloro-3-methoxy-phenyl)methanone]",0.254
21,"O=C(c1cccc(-c2n[nH]cc2F)c1Cl)N1CCN2C[C@@H](c3cc(Cl)c[nH]c3=O)OC[C@@H]2C1 [Example 140, 3-[(3R,9aS)-8-[2-chloro-3-(4-fluoro-1H-pyrazol-3-yl)benzoyl]-3,4,6,7,9,9a-hexahydro-1H-pyrazino[2,1-c][1,4]oxazin-3-yl]-5-chloro-1H-pyridin-2-one]",0.277
22,"COc1cccc(C(=O)N2CCN3C[C@@](O)(c4cccc(C(F)(F)F)c4)OC[C@@H]3C2)c1Cl [Example 141, [(3R,9aS)-3-hydroxy-3-[3-(trifluoromethyl)phenyl]-1,4,6,7,9,9a-hexahydropyrazino[2,1-c][1,4]oxazin-8-yl]-(2-chloro-3-methoxy-phenyl)methanone]",0.288
23,"COc1cccc(C(=O)N2CCN3C[C@@](O)(c4cccc(F)c4F)OC[C@@H]3C2)c1Cl [Example 142, [(3R,9aS)-3-(2,3-difluorophenyl)-3-hydroxy-1,4,6,7,9,9a-hexahydropyrazino[2,1-c][1,4]oxazin-8-yl]-(2-chloro-3-methoxy-phenyl)methanone]",0.332
24,"COc1cccc(C(=O)N2CCN3C[C@@](O)(c4cc(-c5ccccc5)no4)OC[C@@H]3C2)c1Cl [Example 143, [(3S,9aS)-3-hydroxy-3-(3-phenylisoxazol-5-yl)-1,4,6,7,9,9a-hexahydropyrazino[2,1-c][1,4]oxazin-8-yl]-(2-chloro-3-methoxy-phenyl)methanone]",0.348
25,"COc1cccc(C(=O)N2CCN3C[C@@](O)(c4cc(F)c(F)cc4F)OC[C@@H]3C2)c1Cl [Example 144, [(3R,9aS)-3-hydroxy-3-(2,4,5-trifluorophenyl)-1,4,6,7,9,9a-hexahydropyrazino[2,1-c][1,4]oxazin-8-yl]-(2-chloro-3-methoxy-phenyl)methanone]",0.355
